# Measurements: patent publication US20250122192A1, “5-PYRIMIDINECARBOXAMIDE DERIVATIVES AND METHODS OF USING THE SAME” (Rgenta Therapeutics, Inc., priority 2021, published 2025)
# Where a name gives a salt, the structure may show the parent alone.
# Test system: PMS1
# Assay: Mini-gene reporter assay-PMS1
# Format: cell-based
# Conditions: Homo sapiens; for IC50: HEK293, PMS1 mini-gene firefly luciferase reporter transiently transfected into HEK293 cells, read-out: PMS1 IC50; for activation at 5 µM: PMS1 mini-gene firefly luciferase reporter in HEK293 cells, read-out: PMS1% Effect at 5 μM
# Description: Biological Activity of the Compounds of the Present Disclosure Mini-gene reporter assay-PMS1
# Mini-gene reporter constructs for each target site can be constructed by first PCR amplifying the region-of-interest including the sequence of the alternatively skipped, sequences of the immediate upstream and downstream introns, and sequences of the immediate upstream and downstream exons. Then the 3′end of the amplified sequence can be ligated to a firefly luciferase reporter gene and cloned into the pcDNA3.1 vector backbone. The final reporter construct can be transiently transfected into HEK293 cells using Lipofectamine 3000 transfection reagents. Compounds that can induce the inclusion of the skipped exon in the reporter construct would increase the reporter firefly luciferase activity.
# Test compounds may be diluted in duplicates and dispensed into an assay plate. Transient mini-gene reporter cell line stock is resuspended and dispensed into the assay plate. Assay plates are then centrifuged and incubated. A luciferase reagent (e.g. ONE-Glo firefly luciferase reagent from Promega®) may be added to the assay plate and the luminescence (RLU) signals recorded. PMS1 EC50 values may be determined by curve fitting in Levenberg-Marquardt algorithm.
IC50 [µM],Structure (SMILES),activation at 5 µM [%]
1 to 3,CCOc1nc(N2CC[C@H]3CCN[C@H]3C2)ncc1C(=O)Nc1cc(F)c2nc(C)cn2c1 (racemic) [Compound 198],–
0.5 to 1,CCOc1nc(N2CCC(C3CCCN3)CC2)ncc1C(=O)Nc1cn2cc(C)nc2c(C)n1 (centres unmarked) [Compound 73],–
0.5 to 1,CCOc1nc(N2CCN[C@@H](C(C)C)C2)ncc1C(=O)Nc1cn2cc(C)nc2c(C)n1 [Compound 65],–
–,CCOc1nc(N2CCCC3(CNCCO3)C2)ncc1C(=O)Nc1cc(F)c2nc(C)cn2c1 (centres unmarked) [Compound 172],< 50
> 3,CCOc1nc(N2CC3(CCNCC3)[C@H]3COC[C@H]32)ncc1C(=O)Nc1cc(F)c2nc(C)cn2c1 (racemic) [Compound 124],–
< 0.5,CCOc1nc(N2CCC(NCCOC)CC2)ncc1C(=O)Nc1cc(F)c2nc(C)cn2c1 [Compound 155],–
< 0.5,CCOc1nc(N2CCC(NCC3CC3)CC2)ncc1C(=O)Nc1cc(F)c2nc(C)cn2c1 [Compound 164],–
< 0.5,CCNC1COC2(C1)CN(c1ncc(C(=O)Nc3cc(F)c4nc(C)cn4c3)c(OCC)n1)C2 (centres unmarked) [Compound 247],–
–,CCOc1nc(N2CC(C)OC3(CCNCC3)C2)ncc1C(=O)Nc1cc(F)c2nc(C)cn2c1 (centres unmarked) [Compound 162],< 50
–,"CCOc1nc(N2CC[C@@H](NC)C2)ncc1C(=O)Nc1cc(F)c2nc(C)cn2c1 (single isomer, unassigned) [Compound 311, hydrochloride]",> 75
1 to 3,"CCOc1nc(N2C[C@@H](C)N[C@@H](C)C2)ncc1C(=O)Nc1cc(F)c2nn(C)cc2c1 [Compound 280, 2-((3R,5S)-3,5-dimethylpiperazin-1-yl)-4-ethoxy-N-(7-fluoro-2-methyl-2H-indazol-5-yl)pyrimidine-5-carboxamide 4-methylbenzenesulfonate]",–
> 3,CCOc1nc(N2CC[C@@H]3CNC[C@@H]3C2)ncc1C(=O)Nc1cn2cc(C)nc2c(C)n1 (racemic) [Compound 29],–
1 to 3,CCOc1nc(N2CCNCC2C(F)F)ncc1C(=O)Nc1cc(F)c2nc(C)cn2c1 (centres unmarked) [Compound 112],–
–,CCOc1nc(N2CCC(C3(O)CNC3)CC2)ncc1C(=O)Nc1cn2cc(C)nc2c(C)n1 [Compound 75],< 50
0.5 to 1,"CCOc1nc(N2CC[C@@H](CN(C)C)C2)ncc1C(=O)Nc1cc(F)c2nc(C)cn2c1 [Compound 305, (S)-2-(3-((dimethylamino)methyl)pyrrolidin-1-yl)-4-ethoxy-N-(8-fluoro-2-methylimidazo[1,2-a]pyridin-6-yl)pyrimidine-5-carboxamide formate]",–
0.5 to 1,CCOc1nc(N2CCNC(C)C2)ncc1C(=O)Nc1cn2cc(C)nc2c(C)n1 (centres unmarked) [Compound 102],–
0.5 to 1,CCOc1nc(N2CCC[C@H]3CNC[C@H]32)ncc1C(=O)Nc1cc(F)c2nc(C)cn2c1 [Compound 193],–
> 3,CCOc1nc(N2C[C@@H]3C[C@H]2CN3)ncc1C(=O)Nc1cn2cc(C)nc2c(C)n1 [Compound 55],–
0.5 to 1,CCOc1nc(N2CCC3CCNCC3C2)ncc1C(=O)Nc1cc(F)c2nc(C)cn2c1 (centres unmarked) [Compound 135],–
> 3,"CCOc1nc(N2CCNC(C)(C)C2)ncc1C(=O)Nc1cc(F)c2nn(C)cc2c1 [Compound 265, 2-(3,3-dimethylpiperazin-1-yl)-4-ethoxy-N-(7-fluoro-2-methyl-2H-indazol-5-yl)pyrimidine-5-carboxamide]",–
–,"CCOc1nc(C2=CCNC2)ncc1C(=O)Nc1cc(F)c2nc(C)cn2c1 [Compound 315, 2-(2,5-dihydro-1H-pyrrol-3-yl)-4-ethoxy-N-8-fluoro-2-methylimidazo[1,2-a]-pyridin-6-ylpyrimidine-5-carboxamide]",> 75
< 0.5,"CCOc1nc(N2CC3(CNC3)C2)ncc1C(=O)Nc1cn2cc(C)nc2c(C)n1 [Compound 18, 2-{2,6-diazaspiro[3.3]heptan-2-yl}-N-{2,8-dimethylimidazo[1,2-a]pyrazin-6-yl}-4-ethoxypyrimidine-5-carboxamide]",–
0.5 to 1,CCOc1nc(N2CCNC3CC32)ncc1C(=O)Nc1cc(F)c2nc(C)cn2c1 (centres unmarked) [Compound 192],–
1 to 3,"CCCOc1nc(N2CCNCC2)ncc1C(=O)Nc1cc(F)c2nn(C)cc2c1 [Compound 301, N-(7-fluoro-2-methyl-2H-indazol-5-yl)-2-(piperazin-1-yl)-4-propoxypyrimidine-5-carboxamide]",–

IC50 [µM],Structure (SMILES),activation at 5 µM [%]
< 0.5,CCOc1nc(N2CCCC(C3CCCCN3)C2)ncc1C(=O)Nc1cc(F)c2nc(C)cn2c1 (centres unmarked) [Compound 147],–
< 0.5,CCOc1nc(N2CCNCC2C)ncc1C(=O)Nc1cc(F)c2nc(C)cn2c1 (centres unmarked) [Compound 240],–
< 0.5,CCNC1CCN(c2ncc(C(=O)Nc3cc(F)c4nc(C)cn4c3)c(OCC)n2)C1 (centres unmarked) [Compound 154],–
0.5 to 1,CCOc1nc(N2CCCC(N3CCNCC3)C2)ncc1C(=O)Nc1cc(F)c2nc(C)cn2c1 (centres unmarked) [Compound 194],–
< 0.5,"CCOc1nc(N2CC[C@@H](NC)C2)ncc1C(=O)Nc1cc(F)c2nn(C)cc2c1 [Compound 282, (R)-4-ethoxy-N-(7-fluoro-2-methyl-2H-indazol-5-yl)-2-(3-(methylamino)pyrrolidin-1-yl)pyrimidine-5-carboxamide formate]",–
> 3,CCOc1nc(N2CCNC(C(F)F)C2)ncc1C(=O)Nc1cc(F)c2nc(C)cn2c1 (centres unmarked) [Compound 115],–
< 0.5,CCOc1nc(N2CCC[C@H]3NCC[C@H]32)ncc1C(=O)Nc1cc(F)c2nc(C)cn2c1 (racemic) [Compound 178],–
1 to 3,"CCOc1nc(N2CCN(C)CC2)ncc1C(=O)Nc1cc(F)c2nc(C)cn2c1 [Compound 6, 4-ethoxy-N-{8-fluoro-2-methylimidazo[1,2-a]pyridin-6-yl}-2-(4-methylpiperazin-1-yl)pyrimidine-5-carboxamide]",–
< 0.5,CCOc1nc(N2C[C@H]3CNCC[C@H]32)ncc1C(=O)Nc1cc(F)c2nc(C)cn2c1 (racemic) [Compound 245],–
1 to 3,CCOc1nc(N2CCC(C3CCCN3)C2)ncc1C(=O)Nc1cn2cc(C)nc2c(C)n1 (centres unmarked) [Compound 38],–
< 0.5,CCOc1nc(N2CC[C@@H]3CNC[C@@H]32)ncc1C(=O)Nc1cc(F)c2nc(C)cn2c1 (racemic) [Compound 209],–
> 3,CCNC1CN(c2ncc(C(=O)Nc3cn4cc(C)nc4c(C)n3)c(OCC)n2)C1 [Compound 100],–
0.5 to 1,CCOc1nc(N2CCC(C3CCNC3)C2)ncc1C(=O)Nc1cc(F)c2nc(C)cn2c1 (centres unmarked) [Compound 127],–
0.5 to 1,CCOc1nc(N2CCC3(CC2)CNC3C(C)C)ncc1C(=O)Nc1cc(F)c2nc(C)cn2c1 (centres unmarked) [Compound 182],–
< 0.5,CCOc1nc(N2CC3=C(CNC3)C2)ncc1C(=O)Nc1cc(F)c2nc(C)cn2c1 [Compound 114],–
> 3,CCOc1nc(N2CCC3(CC2)COC(C)CN3)ncc1C(=O)Nc1cn2cc(C)nc2c(C)n1 (centres unmarked) [Compound 61],–
> 3,"CCOc1nc(N2CCNC(C)(C)C2)ncc1C(=O)Nc1cn2cc(C)nc2cn1 [Compound 10, 2-(3,3-dimethylpiperazin-1-yl)-4-ethoxy-N-{2-methylimidazo[1,2-a]pyrazin-6-yl}pyrimidine-5-carboxamide]",–
< 0.5,CCOc1nc(N2CC(NC)C2)ncc1C(=O)Nc1cc(F)c2nc(C)cn2c1 [Compound 242],–
1 to 3,CCOc1nc(N2CC3CCC2C2CNCC32)ncc1C(=O)Nc1cn2cc(C)nc2c(C)n1 (centres unmarked) [Compound 97],–
1 to 3,"CCOc1nc(N2CCN(C)CC2)ncc1C(=O)Nc1cc(F)c2nn(C)cc2c1 [Compound 259, 4-ethoxy-N-(7-fluoro-2-methyl-2H-indazol-5-yl)-2-(4-methylpiperazin-1-yl)pyrimidine-5-carboxamide formate]",–
> 3,"CCOc1nc(N2CCNC3(CC3)C2)ncc1C(=O)Nc1cc(F)c2nc(C)cn2c1 [Compound 296, 4-ethoxy-N-(8-fluoro-2-methylimidazo[1,2-a]pyridin-6-yl)-2-(4,7-diazaspiro[2.5]octan-7-yl)pyrimidine-5-carboxamide 2,2,2-trifluoroacetate]",–
< 0.5,CCOc1nc(N2CCCC(C3CCNCC3)C2)ncc1C(=O)Nc1cc(F)c2nc(C)cn2c1 (centres unmarked) [Compound 146],–
< 0.5,CCOc1nc(N2CCC3(CCNC3)C2)ncc1C(=O)Nc1cn2cc(C)nc2c(C)n1 (centres unmarked) [Compound 80],–

Structure (SMILES),IC50 [µM],activation at 5 µM [%]
CCOc1nc(N(C)C2CCNCC2)ncc1C(=O)Nc1cc(F)c2nc(C)cn2c1 [Compound 241],< 0.5,–
"CCOc1nc(N(C)C2CCNCC2)ncc1C(=O)Nc1cn2cc(C)nc2cn1 [Compound 256, 4-ethoxy-2-(methyl(piperidin-4-yl)amino)-N-(2-methylimidazo[1,2-a]pyrazin-6-yl)pyrimidine-5-carboxamide]",< 0.5,–
"COc1nc(N(C)C2CCNCC2)ncc1C(=O)Nc1cn2cc(C)nc2c(C)n1 [Compound 253, N-(2,8-dimethylimidazo[1,2-a]pyrazin-6-yl)-4-methoxy-2-(methyl(piperidin-4-yl)amino) pyrimidine-5-carboxamide formate]",< 0.5,–
CCOc1nc(N2CC3CCCC(C2)N3)ncc1C(=O)Nc1cc(F)c2nc(C)cn2c1 [Compound 185],1 to 3,–
CCOc1nc(N(C)[C@@H]2C[C@H]3CC[C@@H](C2)N3)ncc1C(=O)Nc1cc(F)c2nc(C)cn2c1 [Compound 186],< 0.5,–
CCOc1nc(N(C)C2CCNCC2)ncc1C(=O)Nc1cn2cc(C)nc2c(C)n1 [Compound 57],< 0.5,–
